Test results published in patent US9149038B2, “4-amino-6-(heterocyclic)picolinates and 6-amino-2-(heterocyclic)pyrimidine-4-carboxylates and their use as herbicides” (Dow AgroSciences LLC, priority 2013, dated 2015).
Where two headings read alike, the source gives them in different places.

Columns and labels:
[1] = test system: Key Broadleaf Weed and Crop Species; assay: Post-Emergent Test II: postemergent herbicidal activity, visual rating after 14 d (Table 7); assay type: in vivo; details: post-emergence, 336 h; for pest or weed control at 35 g/ha: 35 g ai/ha; for pest or weed control at 70 g/ha: 70 g ai/ha; for pest or weed control at 140 g/ha: 140 g ai/ha
Outline: (§1)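 Post-emergence foliar spray, 187 L/ha, first/second true leaf stage plants in potting mix (pH 6.0-6.8). Rates: top rate and 2-fold serial dilutions to 1/16×. Solvent-blank controls. Readout: visual % kill at 14 d.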

[2] = test system: Key Grass and Sedge Weeds as well as Grass Crops; assay: Post-Emergent Test II: postemergent herbicidal activity, visual rating after 14 d (Table 8); assay type: in vivo; details: post-emergence, 336 h; for pest or weed control at 35 g/ha: 35 g ai/ha; for pest or weed control at 70 g/ha: 70 g ai/ha; for pest or weed control at 140 g/ha: 140 g ai/ha
Outline: as §1

[3] = lambsquarters (Chenopodium album), read-out: Visual Growth Reduction (%) 14 Days After Application CHEAL
[4] = oilseed rape, canola (Brassica napus), read-out: Visual Growth Reduction (%) 14 Days After Application BRSNN
[5] = redroot pigweed (Amaranthus retroflexus), read-out: Visual Growth Reduction (%) 14 Days After Application AMARE
[6] = sunflower (Helianthus annuus), read-out: Visual Growth Reduction (%) 14 Days After Application HELAN
[7] = velvetleaf (Abutilon theophrasti), read-out: Visual Growth Reduction (%) 14 Days After Application ABUTH
[8] = wild poinsettia (Euphorbia heterophylla), read-out: Visual Growth Reduction (%) 14 Days After Application EPHHL
[9] = barnyardgrass (Echinochloa crus-galli), read-out: Visual Growth Reduction (%) 14 Days After Application ECHCG
[10] = giant foxtail (Setaria faberi), read-out: Visual Growth Reduction (%) 14 Days After Application SETFA
[11] = maize, corn (Zea mays), read-out: Visual Growth Reduction (%) 14 Days After Application ZEAMX
[12] = rice (Oryza sativa), read-out: Visual Growth Reduction (%) 14 Days After Application ORYSA
[13] = wheat, spring (Triticum aestivum), read-out: Visual Growth Reduction (%) 14 Days After Application TRZAS
[14] = yellow nutsedge (Cyperus esculentus), read-out: Visual Growth Reduction (%) 14 Days After Application CYPES

Compound	pest or weed control at 35 g/ha [1, 3] [%]	pest or weed control at 70 g/ha [1, 3] [%]	pest or weed control at 140 g/ha [1, 3] [%]	pest or weed control at 35 g/ha [1, 4] [%]	pest or weed control at 70 g/ha [1, 4] [%]	pest or weed control at 140 g/ha [1, 4] [%]	pest or weed control at 35 g/ha [1, 5] [%]	pest or weed control at 70 g/ha [1, 5] [%]	pest or weed control at 140 g/ha [1, 5] [%]	pest or weed control at 35 g/ha [1, 6] [%]	pest or weed control at 70 g/ha [1, 6] [%]	pest or weed control at 140 g/ha [1, 6] [%]	pest or weed control at 35 g/ha [1, 7] [%]	pest or weed control at 70 g/ha [1, 7] [%]	pest or weed control at 140 g/ha [1, 7] [%]	pest or weed control at 35 g/ha [1, 8] [%]	pest or weed control at 70 g/ha [1, 8] [%]	pest or weed control at 140 g/ha [1, 8] [%]	pest or weed control at 35 g/ha [2, 9] [%]	pest or weed control at 70 g/ha [2, 9] [%]	other results
COC(=O)c1nc(-c2ccc3c(c2)OC(C)(C)O3)nc(N)c1Cl [Compound 55]	45 to 59	60 to 74	75 to 84	0 to 29	0 to 29	0 to 29	45 to 59	85 to 94	95 to 100	45 to 59	60 to 74	75 to 84	75 to 84	75 to 84	75 to 84	95 to 100	95 to 100	95 to 100	75 to 84	75 to 84	pest or weed control at 140 g/ha [2, 9]: 75 to 84%; pest or weed control at 35 g/ha [2, 10]: 75 to 84%; pest or weed control at 70 g/ha [2, 10]: 85 to 94%; pest or weed control at 140 g/ha [2, 10]: 85 to 94%; pest or weed control at 35 g/ha [2, 11]: 60 to 74%; pest or weed control at 70 g/ha [2, 11]: 60 to 74%; pest or weed control at 140 g/ha [2, 11]: 60 to 74%; pest or weed control at 35 g/ha [2, 12]: 0 to 29%; pest or weed control at 70 g/ha [2, 12]: 0 to 29%; pest or weed control at 140 g/ha [2, 12]: 0 to 29%; pest or weed control at 35 g/ha [2, 13]: 0 to 29%; pest or weed control at 70 g/ha [2, 13]: 0 to 29%; pest or weed control at 140 g/ha [2, 13]: 0 to 29%; pest or weed control at 35 g/ha [2, 14]: 0 to 29%; pest or weed control at 70 g/ha [2, 14]: 0 to 29%; pest or weed control at 140 g/ha [2, 14]: 0 to 29%
COC(=O)c1nc(-c2cc3c(cc2F)OC(F)(F)O3)nc(N)c1Cl [Compound 56]	0 to 29	0 to 29	0 to 29	0 to 29	0 to 29	0 to 29	0 to 29	0 to 29	0 to 29	85 to 94	85 to 94	85 to 94	0 to 29	0 to 29	0 to 29	60 to 74	95 to 100	95 to 100	75 to 84	75 to 84	pest or weed control at 140 g/ha [2, 9]: 95 to 100%; pest or weed control at 35 g/ha [2, 10]: 60 to 74%; pest or weed control at 70 g/ha [2, 10]: 75 to 84%; pest or weed control at 140 g/ha [2, 10]: 75 to 84%; pest or weed control at 35 g/ha [2, 11]: 45 to 59%; pest or weed control at 70 g/ha [2, 11]: 60 to 74%; pest or weed control at 140 g/ha [2, 11]: 75 to 84%; pest or weed control at 35 g/ha [2, 12]: 0 to 29%; pest or weed control at 70 g/ha [2, 12]: 0 to 29%; pest or weed control at 140 g/ha [2, 12]: 0 to 29%; pest or weed control at 35 g/ha [2, 13]: 0 to 29%; pest or weed control at 70 g/ha [2, 13]: 30 to 44%; pest or weed control at 140 g/ha [2, 13]: 30 to 44%; pest or weed control at 35 g/ha [2, 14]: 0 to 29%; pest or weed control at 70 g/ha [2, 14]: 45 to 59%; pest or weed control at 140 g/ha [2, 14]: 45 to 59%
Nc1nc(-c2cc3c(cc2F)OC(F)(F)O3)nc(C(=O)O)c1Cl [Compound 57]	0 to 29	0 to 29	0 to 29	0 to 29	0 to 29	0 to 29	0 to 29	0 to 29	85 to 94	45 to 59	85 to 94	95 to 100	0 to 29	0 to 29	0 to 29	0 to 29	60 to 74	95 to 100	85 to 94	95 to 100	pest or weed control at 140 g/ha [2, 9]: 95 to 100%; pest or weed control at 35 g/ha [2, 10]: 45 to 59%; pest or weed control at 70 g/ha [2, 10]: 0 to 29%; pest or weed control at 140 g/ha [2, 10]: 45 to 59%; pest or weed control at 35 g/ha [2, 11]: 0 to 29%; pest or weed control at 70 g/ha [2, 11]: 30 to 44%; pest or weed control at 140 g/ha [2, 11]: 45 to 59%; pest or weed control at 35 g/ha [2, 12]: 0 to 29%; pest or weed control at 70 g/ha [2, 12]: 0 to 29%; pest or weed control at 140 g/ha [2, 12]: 0 to 29%; pest or weed control at 35 g/ha [2, 13]: 0 to 29%; pest or weed control at 70 g/ha [2, 13]: 0 to 29%; pest or weed control at 140 g/ha [2, 13]: 30 to 44%; pest or weed control at 35 g/ha [2, 14]: 0 to 29%; pest or weed control at 70 g/ha [2, 14]: 0 to 29%; pest or weed control at 140 g/ha [2, 14]: 0 to 29%
